Like-named read-outs stand apart in the source and are kept apart here.
Experiments:
[1] = cited from earlier work
[2] = AEGR-733/ezetimibe combination therapy patient study: percentage change in body mass; type: in vivo, human
Text: The primary parameter of efficacy in this study is the percentage change in body mass after 12 weeks of therapy.
Approximately 85 subjects were randomized into one of three treatment arms with equal probability. […] Enrolled patients had initial BMIs of both greater than and less than 30 kg/m^2. Patients were not instructed to implement lifestyle changes to induce weight loss. Patients were placed on a heart healthy low fat diet 4-5 weeks prior to start of dosing.
In treatment arm 1, subjects received two capsules: AEGR-733 (5 mg) plus an ezetimibe placebo. In effect, treatment arm 1 represents monotherapy with AEGR-733. In treatment arm 2, subjects received two capsules: an AEGR-733 placebo plus ezetimibe (10 mg). In effect treatment arm 2 represents monotherapy with ezetimibe. In treatment arm 3, subjects received two capsules: an AEGR-733 (5 mg) capsule plus an ezetimibe (10 mg) capsule. Treatment arm 3 patients, in effect, received a combination therapy.
After 4 weeks of treatment, subjects in arms 1 and 3 received a step-up in concentration of AEGR-733 from 5 mg to 7.5 mg for 4 weeks. Thereafter, subjects in arms 1 and 3 received a second step-up in concentration in AEGR-733 from 7.5 mg to 10 mg for 4 more additional weeks of treatment. Subjects in arm 2 continued to receive AEGR-733 matching placebo for the entire 12 weeks of treatment. Subjects randomized to ezetimibe 10 mg in arms 2 and 3 and ezetimibe placebo in arm 1 remained on these doses for the entire 12-week treatment period.
Throughout the study, changes in body weight of the subjects are measured as part of vital signs collection.
FIG. 3 depicts the same data only for those patients with a BMI of greater than 30 kg/m^2. FIG. 4 depicts the same data only for those patients with a BMI of less than or equal to 30 kg/m^2.

[3] = entire cohort, after 12 weeks of daily administration (FIG. 1), AEGR-733 5 then 7.5 then 10 mg, ezetimibe 10 mg
[4] = patients with initial BMI greater than 30 kg/m^2 (FIG. 3), after 12 weeks
[5] = patients with initial BMI less than 30 kg/m^2 (FIG. 4), after 12 weeks

Row | Structure (SMILES) | adverse events ([1]; 80 mg/day) | adverse events ([1]; 160 mg/day) | adverse events ([1]; 25 mg/day) | percent change in body mass [2, 3] [%] | percent change in body mass [2, 4] [%] | percent change in body mass [2, 5]
1 | Cc1cc(C)c2c3ccccc3n(Cc3ccc(C(C(=O)NC(CO)c4ccccc4)C4CCCC4)cc3)c2n1 [implitapide, (2S)-2-cyclopentyl-2-[4-[2,4-dimethyl-9H-pyrido[2,3-b]indol-9-yl)methyl]phenyl]-N-[(1S)-2-hydroxy-1-phenylethyl]ethanamide] | found to cause gastrointestinal disorders, abnormalities in liver function and/or hepatic steatosis | found to cause gastrointestinal disorders, abnormalities in liver function and/or hepatic steatosis | – | – | – | –
2 | O=C(NC1CCN(CCCCC2(C(=O)NCC(F)(F)F)c3ccccc3-c3ccccc32)CC1)c1ccccc1-c1ccc(C(F)(F)F)cc1 [AEGR-733, N-(2,2,2-Trifluorethyl)-9-[4-[4-[[[4′-(trifluoromethyl)[1,1′biphenyl]-2-Y1]carbonyl]amino]-1-piperidinyl]butyl]9H-fluorene-9-carboxamide] | – | – | found to cause gastrointestinal disorders, abnormalities in liver function and/or hepatic steatosis | −1.0 | −0.4 | −1.4%
3 | O=C1[C@H](CC[C@H](O)c2ccc(F)cc2)[C@@H](c2ccc(O)cc2)N1c1ccc(F)cc1 [ezetimibe] | – | – | – | −0.2 | −1.0 | +0.4%

Source: patent US20120071458A1, “METHODS FOR TREATING OBESITY” (priority 2006, published 2012)
